Experimental data: US20150258108A1 (priority 2014, published 2015)
Where “and” joins values, the source holds several entries; their conditions need not be identical. Equal entries are not always repeated. Where two headings read alike, the source gives them in different places. Marks after values point to notes of the source that are not given here.

Assays:
[1] = biological target: T1, human OPRM (μ-opioid receptor) (Homo sapiens, UniProt P35372); conditions: cited from earlier work
human OPRM [2] = biological target: T2, human OPRM (Homo sapiens, UniProt P35372); design: expressed in transfected cells; host or cells: CHO-K1 (cell lines provided by Dr. Toll, Torrey Pines Institute); conditions: cited from earlier work
[3] = tested on: human OPRK (κ-opioid receptor); assay: biochemical; assay type: binding
calf OPRK = calf OPRK (Bos taurus, UniProt Q2KIP6); conditions: calf receptor, literature; cited from earlier work
[4] = biological target: T1, human OPRM (μ-opioid receptor); assay: biochemical; assay type: binding; design: expressed in transfected cells; host or cells: CHO-K1 (cell lines provided by Dr. Toll, Torrey Pines Institute)
human OPRM [5] = biological target: T2, human OPRM; assay: biochemical; assay type: biochemical; design: expressed in transfected cells; host or cells: CHO-K1 (cell lines provided by Dr. Toll, Torrey Pines Institute)
OPRK [6] = biological target: T3, OPRK (Homo sapiens, UniProt P41145); assay: biochemical; design: purchased PerkinElmer Life Sciences (Boston, Mass.)
[7] = biological target: T4, human OPRK (κ-opioid receptor) (Homo sapiens, UniProt P41145); assay: biochemical; assay type: binding; conditions: for Ki: read-out: Ki
T4 construct: purchased PerkinElmer Life Sciences (Boston, Mass.)

calf OPRM = calf OPRM (Bos taurus, UniProt P79350); conditions: calf receptor, literature, cited from earlier work
[8] = biological target: OPRD: opioid receptor delta (Bos taurus, UniProt F1N083); conditions: literature (Pearl, Herrick-Davis et al. 1995); cited from earlier work
OPRK [9] = biological target: T3, OPRK; assay: cell-based; design: host or cells: CHO-K1; conditions: OPRK, inhibitory component; pKi-pKe
[10] = Ascending single-dose pharmacokinetics of noribogaine in healthy volunteers; conditions: for Cmax / Tmax / AUC0-216 / AUC0-∞ / t1/2: fasted healthy males, mean (SD), n = 6
human OPRM [11] = biological target: T2, human OPRM; assay: cell-based; assay type: cell-based; design: host or cells: CHO-K1
[12] = OPRK, [3H]-U69,593 binding, This work
[13] = 30 mg noribogaine single oral dose
[14] = 30 mg noribogaine single oral dose, plasma
[15] = 60 mg noribogaine single oral dose
[16] = 60 mg noribogaine single oral dose, plasma

Sequence of calf OPRM (P79350 whole entry): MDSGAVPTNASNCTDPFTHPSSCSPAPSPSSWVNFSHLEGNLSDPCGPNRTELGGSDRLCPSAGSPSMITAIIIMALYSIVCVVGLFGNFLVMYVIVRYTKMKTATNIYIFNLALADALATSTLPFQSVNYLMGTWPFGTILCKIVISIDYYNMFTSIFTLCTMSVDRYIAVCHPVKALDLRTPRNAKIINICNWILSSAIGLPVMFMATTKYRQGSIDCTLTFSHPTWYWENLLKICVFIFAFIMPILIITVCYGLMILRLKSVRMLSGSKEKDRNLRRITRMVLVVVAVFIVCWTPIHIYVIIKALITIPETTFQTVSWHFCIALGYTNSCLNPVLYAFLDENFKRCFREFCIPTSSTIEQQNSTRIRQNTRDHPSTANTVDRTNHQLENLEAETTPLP
T4 sequence (P41145 whole entry): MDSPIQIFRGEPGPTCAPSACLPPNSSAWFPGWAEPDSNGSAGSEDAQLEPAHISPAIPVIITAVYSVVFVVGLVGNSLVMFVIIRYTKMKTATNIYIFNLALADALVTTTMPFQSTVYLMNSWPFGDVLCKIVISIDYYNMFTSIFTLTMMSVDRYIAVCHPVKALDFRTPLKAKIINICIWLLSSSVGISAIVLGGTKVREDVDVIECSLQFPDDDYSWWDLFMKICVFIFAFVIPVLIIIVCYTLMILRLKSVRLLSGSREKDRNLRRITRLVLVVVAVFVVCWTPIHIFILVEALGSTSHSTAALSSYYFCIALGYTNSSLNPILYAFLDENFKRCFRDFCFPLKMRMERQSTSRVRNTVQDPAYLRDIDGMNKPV
T3 sequence (P41145 whole entry): as above
T2 sequence (P35372 whole entry): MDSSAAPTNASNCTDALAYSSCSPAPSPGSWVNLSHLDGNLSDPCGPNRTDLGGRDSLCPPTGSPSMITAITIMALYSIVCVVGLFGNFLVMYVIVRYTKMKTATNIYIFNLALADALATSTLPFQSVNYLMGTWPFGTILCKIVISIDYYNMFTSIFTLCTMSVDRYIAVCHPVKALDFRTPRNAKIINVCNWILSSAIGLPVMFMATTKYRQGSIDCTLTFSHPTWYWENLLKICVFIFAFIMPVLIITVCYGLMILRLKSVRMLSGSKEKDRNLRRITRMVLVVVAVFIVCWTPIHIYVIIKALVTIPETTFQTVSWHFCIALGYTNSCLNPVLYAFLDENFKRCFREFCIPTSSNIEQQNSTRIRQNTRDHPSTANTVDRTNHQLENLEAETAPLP
T1 sequence (P35372 whole entry): as above
Sequence of calf OPRK (Q2KIP6 whole entry): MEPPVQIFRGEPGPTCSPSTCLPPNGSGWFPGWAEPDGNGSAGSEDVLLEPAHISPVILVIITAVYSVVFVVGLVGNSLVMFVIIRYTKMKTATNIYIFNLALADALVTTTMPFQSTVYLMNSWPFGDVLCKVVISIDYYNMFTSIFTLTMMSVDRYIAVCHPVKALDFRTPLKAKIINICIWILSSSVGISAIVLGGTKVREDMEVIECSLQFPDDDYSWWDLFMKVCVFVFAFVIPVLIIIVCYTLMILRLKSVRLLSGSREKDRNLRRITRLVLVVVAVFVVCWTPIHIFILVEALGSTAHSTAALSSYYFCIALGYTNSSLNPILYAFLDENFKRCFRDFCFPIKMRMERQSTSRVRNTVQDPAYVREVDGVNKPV
Sequence of OPRD: opioid receptor delta (F1N083 1-372): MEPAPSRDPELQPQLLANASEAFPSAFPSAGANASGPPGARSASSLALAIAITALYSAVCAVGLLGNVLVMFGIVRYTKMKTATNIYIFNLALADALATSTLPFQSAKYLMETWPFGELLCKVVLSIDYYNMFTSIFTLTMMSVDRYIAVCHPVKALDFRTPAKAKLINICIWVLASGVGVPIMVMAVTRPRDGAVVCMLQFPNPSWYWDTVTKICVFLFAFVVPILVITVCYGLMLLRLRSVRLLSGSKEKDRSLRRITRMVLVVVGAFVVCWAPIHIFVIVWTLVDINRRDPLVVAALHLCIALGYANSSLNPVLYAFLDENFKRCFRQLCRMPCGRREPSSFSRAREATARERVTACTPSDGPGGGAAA

Q: For NC(N)=Nc1ccc2c3c([nH]c2c1)[C@@H]1Oc2c(O)ccc4c2[C@@]12CCN(CC1CC1)[C@H](C4)[C@]2(O)C3 [6′GNTI], which Ki [1] is on record?
A: Its Ki is 82 nM.

Q: What about the pKi [1] of the same compound?
A: The pKi was 7.1.

Q: What about the EC50 (human OPRM [2]; OPRM, activation, literature) of the same compound?
A: Its EC50 is > 1000 nM.

Q: And the Efficacy (human OPRM [2]; OPRM, activation, literature)?
A: The Efficacy was 0~ %.

Q: What about the “Specificity ΔpKi” value ([3]; ΔpKi = pKi(OPRK)-pKi(OPRM)) of the same compound?
A: The value was 1.84.

Q: Which results are given for COCC[C@H]1CC2CN3CCc4c([nH]c5ccccc45)[C@](C(=O)OC)(C2)[C@H]13 [18-MC, 18-methoxycoronaridine]?
A: reported selectivity at OPRM [1]: 5 ×; Ki (calf OPRK): 5100 nM; pKi (calf OPRK): 5.3*; pKi [4]: 5.6*; Ki ([4]; read-out: Ki): 2260 nM and 2360 nM; Efficacy (Emax) (human OPRM [5]): <5%; stimulation of the OPRM G-protein pathway (human OPRM [5]): failed to stimulate; Efficacy (Emax) (OPRK [6]): <5%; pEC50 (OPRK [6]): 4.8; pEC50, (Ke): pKe (OPRK [6]): 5.3; stimulation of [35S]GTPγS binding to OPRK (OPRK [6]): failed to stimulate; EC50 (OPRK [6]; read-out: EC50): ~16000 nM; affinity at human OPRK versus OPRM ([3]; this work): equi-affine; pKi [7, 12]: 5.7*; Ki [7, 12]: 1800 nM; Ki ([7]; human OPRK, [3H]-U69,593): 1840 ± 120 nM; Ki (calf OPRM; read-out: Ki): 1100 nM; pKi (calf OPRM): 6.0*

Q: Which “Specificity ΔpKi” value ([3]; ΔpKi = pKi(OPRK)-pKi(OPRM)) does the source give for C[C@@H](NC(=O)[C@@H](N)Cc1ccc(O)cc1)C(=O)NCC(=O)N(C)[C@@H](Cc1ccccc1)C(=O)NCCO [DAMGO, [D-Ala2, NMe-Phe4, Gly-ol5]-enkephalin] here?
A: Its value is <−3.

Q: With CC[C@H]1CC2C[C@H]3c4[nH]c5ccc(OC)cc5c4CCN(C2)C13 [Ibogaine, reference compound] as the compound, how does the “Ki at OPRD” value [8] read?
A: Its value is “N.Q.)”.

Q: And the Ki [4]?
A: Its Ki is 6920 ± 830 nM.

Q: What about the “stimulation of the OPRM G-protein pathway” value (human OPRM [5]) of the same compound?
A: Its value is “failed to stimulate”.

Q: What about the Emax (human OPRM [5]; read-out: Efficacy (Emax)) of the same compound?
A: Its Emax is -2.9%.

Q: What about the Ki (calf OPRM) of the same compound?
A: Its Ki is 11000 nM.

Q: And the pKi (calf OPRM)?
A: The pKi was 5.0*.

Q: With C=C1CC[C@@]2(O)[C@H]3Cc4ccc(O)c5c4[C@@]2(CCN3CC2CC2)[C@H]1O5 [Nalmefene, reference compound] as the compound, how does the “Specificity ΔpKi” value ([3]; ΔpKi = pKi(OPRK)-pKi(OPRM)) read?
A: The value was 1.1.

Q: For Oc1ccc2c3c1O[C@H]1c4[nH]c5c(c4C[C@@]4(O)[C@@H](C2)N(CC2CC2)CC[C@]314)C[C@@]1(O)[C@H]2Cc3ccc(O)c4c3[C@@]1(CCN2CC1CC1)[C@H]5O4 [NorBNI, nor-binaltorphimine, reference compound], which “Specificity ΔpKi” value ([3]; ΔpKi = pKi(OPRK)-pKi(OPRM)) is on record?
A: The value was 2.0.

Q: What about the e-coupling (OPRK [9]) of the same compound?
A: The e-coupling was 0.27.

Q: With CC[C@H]1C[C@@H]2C[C@H]3c4[nH]c5ccc(OC6OC(C(=O)O)C(O)C(O)C6O)cc5c4CCN(C2)[C@@H]13 (stereo partly shown) [Noribogaine glucuronide] as the compound, how does the Cmax [10, 13] read?
A: Its Cmax is 1.8 (0.6) ng/ml.

Q: And the Tmax [10, 13]?
A: The Tmax was 3.0 (0.6) hr.

Q: And the AUC0-216 [10, 14]?
A: Its AUC0-216 is 25.7 (9.1) ng · hr/ml.

Q: What about the “AUC0-∞” value [10, 14] of the same compound?
A: The value was 25.8 (9.3) ng · hr/ml.

Q: What about the t1/2 [10, 14] of the same compound?
A: Its t1/2 is 20.6 (4.9) hr.

Q: What about the Cmax [10, 15] of the same compound?
A: Its Cmax is 4.1 (1.2) ng/ml.

Q: What about the Tmax [10, 15] of the same compound?
A: Its Tmax is 3.8 (1.2) hr.

Q: What about the AUC0-216 [10, 16] of the same compound?
A: Its AUC0-216 is 65.0 (21.5) ng · hr/ml.

Q: And the “AUC0-∞” value [10, 16]?
A: Its value is 67.1 (21.9) ng · hr/ml.

Q: And the t1/2 [10, 16]?
A: Its t1/2 is 23.1 (3.0) hr.

Q: What about the “time of peak concentrations after oral noribogaine dosing” value ([10]; across dose groups, healthy volunteers) of the same compound?
A: Its value is 3 to 4 h.

Q: What about the Mean half-life ([10]; across dose groups, healthy volunteers, plasma) of the same compound?
A: The Mean half-life was 21 to 23 h.

Q: What about the “proportion of noribogaine glucuronide Cmax and AUC relative to noribogaine” value ([10]; both dose groups (30 mg, 60 mg)) of the same compound?
A: Its value is 3-4%.

Q: And the “time by which detected in all subjects” value ([10]; plasma, 30 mg and 60 mg noribogaine dose groups)?
A: Its value is ≤ 0.75 h.

Q: Which Efficacy (human OPRM [11]) does the source give for [Met]-Enkephalin [reference compound] here?
A: The Efficacy was 100%.

Q: What about the e-coupling (human OPRM [11]) of the same compound?
A: The e-coupling was 1.94.

Q: What about the Efficacy (human OPRM [2]) of the same compound?
A: The Efficacy was ~95%.

Q: And the e-coupling (human OPRM [5])?
A: The e-coupling was 1.8.

Q: What about the “Specificity ΔpKi” value [3] of the same compound?
A: The value was <−3.
